{"source": "patent US20060004088A1", "about": "“Furan derivatives for preventing and curing osteoporosis and pharmaceutical compositions containing the same” (OCT INC., priority 2002, published 2006)", "key": {"[1]": {"tested_on": "alkaline phosphatase (ALP) in HOS cells", "experiment": "Alkaline phosphatase (osteoblast marker enzyme) activity in HOS cells", "format": "cell-based, human", "conditions": "text summary, concentration not stated", "source_text": "(§1) In the following tests, three kinds of cell lines were used. The human osteosarcoma cell lines, MG-63 (ATCC No. CRL-1427) and HOS (ATCC No. CRL-1543), and mouse muscle C2C12 muscle cells (ATCC No. CRL-1772) were purchased from ATCC (American Type Culture Collection, Rockville, USA), and cultured in Dulbecco's modified Eagle's medium (DMEM) supplemented with 10% fetal bovine serum (FBS).\nTo examine whether the Compound 1 affects positively or negatively osteoblast activity, alkaline phosphatase (ALP) activity was measured. HOS cells were aliquotted onto a 96-well microplate at a density of 5×10^3 cells per well, and cultured. When forming a monolayer, the cells were treated with the naturally extracted compound (Compound 1) at prescribed concentrations. After incubation in 10% FBS-containing DMEM for 48 hrs, the cells were treated with 0.1% Triton X-100/saline for 30 min at 37° C. A portion of each cell lysate was reacted with 0.1 N glycine-NaOh buffer (pH 10.4) for 30 min at 37° C. in the presence of 100 mM nitrophenyl phosphate (PNPP) as a substrate of alkaline phosphate. The amount of PNP (ρ-nitrophenol) released from the substrate PNPP was determined by measuring absorbance at 405 nm. Protein amount was determined by a modified Lowry method, and enzyme activity was designated as nmol substrate cleaved/h/mg protein."}, "[2]": {"tested_on": "MG-63 osteoblasts", "experiment": "Proliferation of MG-63 osteoblasts (3H-thymidine incorporation)", "format": "cell-based, human", "conditions": "for Proliferation rate of MG-63 cells, %: 1% FBS, untreated control = 100; for proliferation rate of osteoblasts compared to a control not treated: text summary, concentration not stated", "source_text": "as §1\nIn order to indirectly evaluate cytotoxicity of the Compound 1 and investigate effect of the Compound 1 naturally extracted on obsteoblast proliferation, proliferation of MG-63 osteoblasts was investigated by measuring the amount of ^3H-thymidine incorporated into cellular DNA upon DNA replication. The cells were aliquotted onto 24-well plates at a density of 2×10^4 cells per well. The next day, after exchanging culture medium to medium containing 1% FBS, the cells were treated with the compound 1 serially diluted at various concentrations and further cultured for 48 hrs. Four hours before finishing the culture of 48 hrs, ^3H-thymidine was added to the medium in an amount of 3 μCi per well. The cells were washed with phosphate buffer, and treated with 5% trichloroacetic acid (TCA) pre-cooled on ice. Each of the separated TCA-insoluble fractions was dissolved in 0.1 M NaOH. With a portion of each fraction, ^3H-thymidine uptake by the cells was measured using a liquid scintillation counter."}, "[3]": {"tested_on": "ovariectomized white mice with developed osteoporosis", "experiment": "Therapeutic effect on osteoporosis, tibia histology", "format": "in vivo", "conditions": "four weeks after ovariectomy, then oral 220 μl in 30 ml water for four weeks", "protocol": "In order to evaluate effects of the compound of the present invention on treatment and prevention of osteoporosis, female white mice with osteoporosis induced by ovariectomy were used as a disease model. After ovariectomy, mice were administered with the compound of the present invention. Tibias were dissected from the mice, and observed histologically.\nIn order to evaluate therapeutic effect of the Compound 1 on osteoporosis, after ovariectomy, the mice were fed with solid feedstuff for four weeks. After checking progress of osteoporosis in the mice, a test group was administered with the Compound 1 for four weeks, according to the same method as described above, while a control group was fed with only solid feedstuff. Eight weeks after ovariectomy, tibia tissue specimens were prepared according to a method known the art.\nThe tibia tissue specimens prepared in the Experimental Example 3-2 were fixed in a Bouin's solution for about 24 hrs. Then, the tibia tissue specimens were decalcificated with 5% nitric acid for about 60 hrs in order to remove inorganic substances including calcium from the tibias, thus softening the tibias to the degree suitable for fracture. […]"}, "[4]": {"tested_on": "transcriptional factor Runx2", "experiment": "Runx2 expression, p6xOSE2-Luc luciferase assay in C2C12 cells", "format": "cell-based, mouse", "protocol": "as §1\nPrimarily, transient transfection was carried out using a p6xOSE2-Luc vector, which was prepared by inserting into a pGL3 promoter vector six tandem copies of the OSE2 motif, the binding site of the transcriptional factor Runx2 that is a critical regulator for osteoblast differentiation. Runx2 expression levels were determined by luciferase assay. The test procedure will be described in more detail, as follows.\nC2C12 cells were plated onto 6-well plates at a density of 1(10^5 cells per well, and cultured for 24 hrs in a 5% CO2 incubator.\nThen, the cells transiently transfected with the p6xOSE2-Luc vector using a transfection reagent, LipofectAmine, as follows. The plasmid DNA was reacted with the transfection reagent for 15 min to form p6xOSE2-Luc DNA:lipofectamine complexes. During this reaction, culture medium was removed from each well of the plates, the cells were washed with FBS-free DMEM, and 800 μl of FBS-free DMEM was added to each well. […]"}}, "note": "“Also recorded” adds a separate entry of the source."}
{"smiles": "O=Cc1ccc(CO)o1", "note": "[Compound 1, 5-hydroxymethylfuran-2-carboxyaldehyde]", "values": [{"measurement": "alkaline phosphatase activity compared to a control not treated", "setting": "[1]", "result": "about 121%"}, {"measurement": "alkaline phosphatase activity compared to a control not treated", "setting": "[1]; listed as Example 1", "result": 120, "unit": "%"}, {"measurement": "Proliferation rate of MG-63 cells, %", "setting": "[2]; 10^−4 M Compound 1, 48 hrs", "result": "105.50 ± 5.90", "unit": "%"}, {"measurement": "Proliferation rate of MG-63 cells, %", "setting": "[2]; 10^−5 M Compound 1, 48 hrs", "result": "102.63 ± 8.53", "unit": "%"}, {"measurement": "Proliferation rate of MG-63 cells, %", "setting": "[2]; 10^−6 M Compound 1, 48 hrs", "result": "105.56 ± 5.49", "unit": "%"}, {"measurement": "Proliferation rate of MG-63 cells, %", "setting": "[2]; 10^−7 M Compound 1, 48 hrs", "result": "103.91 ± 5.81", "unit": "%"}, {"measurement": "Proliferation rate of MG-63 cells, %", "setting": "[2]; 10^−8 M Compound 1, 48 hrs", "result": "101.38 ± 4.65", "unit": "%"}, {"measurement": "proliferation rate of osteoblasts compared to a control not treated", "setting": "[2]", "result": "over 105%"}, {"measurement": "proliferation rate of osteoblasts compared to a control not treated", "setting": "[2]; listed as Example 1", "result": "≥ 105", "unit": "%"}, {"measurement": "trabecular bone density, histology", "setting": "[3]", "result": "just a slight decrease in trabecular bone density; also recorded: no trabecular bone loss"}, {"measurement": "effect on activity of Runx2 (in words)", "setting": "[4]", "result": "increase the activity of Runx2"}]}
